Results taken from patent US20250242031A1, “POLYMER SALTS FOR IMPROVED DRUG DELIVERY FROM AMORPHOUS SOLID DISPERSIONS” (Purdue Research Foundation, priority 2022, published 2025).
Values after ≈ are worked out from the molar mass of the structure shown.

Assay: Drug amorphous solubility
Assay type: physicochemical
Settings: aqueous buffer; miconazole, dissolution medium pH 6.8

solubility: ~5 µg/mL (≈ 12 µM)
SMILES: Clc1ccc(COC(Cn2ccnc2)c2ccc(Cl)cc2Cl)c(Cl)c1 (stereo not shown) [miconazole]
